Laboratory results from the NIST ThermoML archive (doi:10.1016/j.jct.2018.10.015).
Numbers after ± are expanded uncertainties.

Assay: xn = mol fraction of the nth substance listed
Settings: 101.3 kPa, Liquid; for viscosity: Concentric cylinders viscometry; for mass density: Vibrating tube method

CCCCn1cc[n+](C)c1C.O=S(=O)([N-]S(=O)(=O)C(F)(F)F)C(F)(F)F + COC(=O)OC
Settings | mass density, 293.15 K [kg/m3] | mass density, 298.15 K [kg/m3] | mass density, 303.15 K [kg/m3] | mass density, 308.15 K [kg/m3] | viscosity, 293.15 K [mPa·s] | viscosity, 298.15 K [mPa·s] | viscosity, 303.15 K [mPa·s] | viscosity, 308.15 K [mPa·s]
x1 = 0.0976 | 1176 ± 2.5 | 1170.1 ± 2.5 | 1164.2 ± 2.5 | 1158.2 ± 2.5 | 1.828 ± 0.024 | 1.686 ± 0.021 | 1.561 ± 0.02 | 1.445 ± 0.019
x1 = 0.1935 | 1242.1 ± 2.4 | 1236.6 ± 2.4 | 1231.1 ± 2.4 | 1225.6 ± 2.4 | 3.518 ± 0.046 | 3.172 ± 0.039 | 2.876 ± 0.035 | 2.623 ± 0.032
x1 = 0.299 | 1291.6 ± 2.4 | 1286.4 ± 2.4 | 1281.2 ± 2.4 | 1275.9 ± 2.4 | 6.864 ± 0.087 | 6.035 ± 0.073 | 5.352 ± 0.065 | 4.784 ± 0.058
x1 = 0.4011 | 1325.8 ± 2.4 | 1320.8 ± 2.4 | 1315.7 ± 2.4 | 1310.7 ± 2.4 | 12.11 ± 0.15 | 10.38 ± 0.13 | 8.997 ± 0.11 | 7.873 ± 0.095
x1 = 0.4954 | 1350.1 ± 2.5 | 1345.2 ± 2.5 | 1340.2 ± 2.5 | 1335.3 ± 2.4 | 19.5 ± 0.24 | 16.34 ± 0.2 | 13.88 ± 0.17 | 11.92 ± 0.14
x1 = 0.5974 | 1371 ± 2.5 | 1366.2 ± 2.5 | 1361.4 ± 2.5 | 1356.5 ± 2.5 | 31.06 ± 0.39 | 25.45 ± 0.31 | 21.16 ± 0.26 | 17.83 ± 0.22
x1 = 0.6988 | 1387.8 ± 2.5 | 1383 ± 2.5 | 1378.3 ± 2.5 | 1373.5 ± 2.5 | 47.37 ± 0.6 | 38.01 ± 0.47 | 31.01 ± 0.38 | 25.68 ± 0.31
x1 = 0.7987 | 1401.5 ± 2.5 | 1396.8 ± 2.5 | 1392.1 ± 2.5 | 1387.4 ± 2.5 | 68.9 ± 0.89 | 54.23 ± 0.66 | 43.5 ± 0.54 | 35.46 ± 0.44
x1 = 0.9 | 1413.2 ± 2.5 | 1408.5 ± 2.5 | 1403.9 ± 2.5 | 1399.2 ± 2.5 | 97.5 ± 1.4 | 75.54 ± 1 | 59.63 ± 0.74 | 47.91 ± 0.59
x1 = 1 | 1423.1 ± 2.5 | 1418.5 ± 2.5 | 1413.9 ± 2.5 | 1409.3 ± 2.5 | 133.6 ± 2.3 | 101.82 ± 1.6 | 79.23 ± 1.1 | 62.74 ± 0.78
